Laboratory results reported in patent publication US20160030438A1, “ANTI-TUMORAL COMPOSITION COMPRISING A PI3KBETA INHIBITOR AND A RAF INHIBITOR, TO OVERCOME CANCER CELLS RESISTANCE” (SANOFI, priority 2013, published 2016).

Key:
[1] = tested on: ribosomal protein S6 phosphorylated on Ser240/244 (pS6) in A2058 cells; test: In vitro S6 phosphorylation inhibition (pS6 western blot) in A2058, example 8; format: cell-based, human; conditions: for inhibition at 0.1 µM: Homo sapiens
Description: (§1) The inhibitory effect on ribosomal S6 protein phosphorylation by both compounds alone or in combination was characterized using western blotting method which allows investigating S6 phosphorylation by detecting the expression of ribosomal protein S6 phosphorylated on Ser240/244 position (pS6).
(§2) The human melanoma A2058 cell line was purchased at ATCC (Ref number CRL-11147 Batch 5074651). The A2058 cells were cultured in DMEM High glucose medium supplemented with 10% FBS and 2 mM L-Glutamine.
Cell treatment, Western Blot experiment and calculation of percentage of pS6 inhibition were performed according to the material and method described in example 7.

[2] = tested on: human melanoma cell line A2058; test: In vitro pro-apoptotic activity (PARP cleavage) in A2058 in a concentration-dependent manner, example 6; format: cell-based; conditions: A2058, example 6
Description: (§3) The characterization of the interaction between compound (I) and compound (II) was studied using western blotting method which allows investigating apoptosis by detecting the cleavage of the PARP protein.
as §2
(§4) Cell treatment, Western Blot experiment and calculation of apoptosis fold induction were performed according to the material and method described in example 2.

[3] = tested on: human melanoma cell line A2058; test: In vitro pro-apoptotic activity (PARP cleavage western blot) in A2058, example 4; format: cell-based
Description: as §3, §2, §4

[4] = tested on: human melanoma cell line A2058; test: In vitro anti-proliferative activity (CelltiterGlo, ray design) in A2058, example 3; format: cell-based; conditions: for Absolute IC40: A2058, 96 hours, example 3
Description: (I) in combination with the BRAF inhibitor compound (II), experiments were conducted using human melanoma cell line A2058 (BRAF mutant, PTEN-deficient and unsensitive to said BRAF inhibitor).
as §2
Compounds (I) and (II) dilutions were prepared according to the material and methods of example 1. The final concentrations tested were defined by Ray design method described below. The DMSO concentration was 0.1% in controls and in all treated wells.
A ray design was used allowing the characterization of the interaction of the two compounds for several fixed proportion in the mixture. The ray design includes one ray for each single agent and 19 combination rays.
A2058 cells were plated at 4,000 cells/well in 384-well plates in appropriate culture medium and incubated for 6 hours at 37° C., 5% CO2. […] Cell growth was evaluated by measuring intracellular ATP using CelltiterGlo® reagent (Promega) according to the manufacturer's protocol. Briefly, CellTiterGlo® was added to each plate, incubated for 1 hour then luminescent signal was read on the MicroBeta Luminescent plate reader.
Four experiments have been performed on this cell line. For each experiment, two 384-well plates were used allowing working with duplicates for combination rays and with quadruplicates for single agent rays.
Inhibition of cell growth was estimated after treatment with single compounds or combination of compounds for four days and comparing the signal to cells treated with vehicle (DMSO) and following equation described in example 1.
These measurements allow determining the potential synergistic combinations in using the statistical method described in example 1.

[5] = tested on: ribosomal protein S6 phosphorylated on Ser240/244 (pS6) in WM-266-4 cells; test: In vitro S6 phosphorylation inhibition (pS6 western blot) in WM-266-4, example 7; format: cell-based, human; conditions: for inhibition at 0.1 µM: Homo sapiens
Description: as §1
(§5) The human melanoma WM-266-4 cell line was purchased at ATCC (Ref number CRL-1676 Batch 3272826). The WM-266-4 cells were cultured in RPMI1640 medium supplemented with 10% FBS and 2 mM L-Glutamine.
WM-266-4 cells were seeded into 6-well microplates at 1 000 000 cells per well, in complete culture medium and incubated at 37° C., 5% CO2, overnight.
At the end of cell treatment period, adherent cells as well as cells in the cell culture supernatant were lysed for the preparation of the proteins. Cells were lysed in a lysis buffer containing Hepes 50 mM, NaCl 150 mM, Glycerol 10%, Triton 1%, pH=7.5, adding extemporaneously a cocktail of protease and phosphatase inhibitors diluted 100 fold. Protein concentrations in each sample were determined using microBCA technique according to manufacturer's instructions. […] After western blotting revelation according to the operating procedure instructions, luminescence was read using FujiFilm (Ray Test) apparatus.
This instrument measures the total signal of luminescence obtained on Fujifilm machine (AU) for each selected band. Then, it subtracts the background value (BG) proportional to the size of the selected band or Area. The background is calculated from a band taken on the specific background of the western blot, to obtain the specific signal or (AU−BG) for each band. The calculation of the percentage of inhibition is performed for each treatment with compound or combination of compounds using the following formula:
Inhibition %=1−(((AU−BG)t/(AU−BG)st))*100

[6] = tested on: human melanoma cell line WM-266-4; test: In vitro pro-apoptotic activity (PARP cleavage) in WM-266-4 in a concentration-dependent manner, example 5; format: cell-based; conditions: WM-266-4, example 5
Description: as §3, §5
They were diluted following two 10-fold step dilution in DMSO in order to obtain a 1 mM solution and a 0.1 mM solution Then each solution at 10 mM, 1 mM or 0.1 mM was diluted 50-fold in culture medium containing 10% serum before being added onto cells with a 20-fold dilution factor to reach final concentrations of 10,000 nM, 1,000 nM and 100 nM. The final DMSO concentration was 0.1% in controls and in all treated wells.
as §4

[7] = Homo sapiens, single agent 100 nM
[8] = single agent 10 000 nM, A2058, example 4
[9] = single agent 10 000 nM, 24 hours

| SMILES | inhibition at 0.1 µM ([1]; single agent 100 nM) [%] | pS6 signal (AU-BG) ([1]; single agent 100 nM) | Inhibition % of S6 phosphorylation ([1]; single agent 1 000 nM) [%] | pS6 signal (AU-BG) ([1]; single agent 1 000 nM) | Inhibition % of S6 phosphorylation ([1]; single agent 10 000 nM) [%] | pS6 signal (AU-BG) ([1]; single agent 10 000 nM) | PARP cleavage signal (AU-BG) ([2]; single agent 100 nM) | PARP cleavage signal (AU-BG) ([2]; single agent 1 000 nM) | PARP cleavage signal (AU-BG) ([2]; single agent 10 000 nM) | PARP cleavage signal (AU-BG) [3, 8] [AU-BG] | Absolute IC40 ([4]; single agent) | inhibition at 0.1 µM ([5]; single agent 100 nM) [%] | pS6 signal (AU-BG) ([5]; single agent 100 nM) | Inhibition % of S6 phosphorylation ([5]; single agent 1 000 nM) [%] | pS6 signal (AU-BG) ([5]; single agent 1 000 nM) | Inhibition % of S6 phosphorylation [5, 9] [%] | pS6 signal (AU-BG) [5, 9] [AU-BG] | PARP cleavage signal (AU-BG) ([6]; single agent 100 nM) | PARP cleavage signal (AU-BG) ([6]; single agent 1 000 nM) | PARP cleavage signal (AU-BG) ([6]; single agent 10 000 nM) | other results |
| --- | --- | --- | --- | --- | --- | --- | --- | --- | --- | --- | --- | --- | --- | --- | --- | --- | --- | --- | --- | --- | --- |
| CCCS(=O)(=O)Nc1ccc(F)c(C(=O)c2c[nH]c3ncc(-c4ccc(Cl)cc4)cc23)c1F [Compound (II), 1-Propanesulfonamide,N-[3-[[5-(4-chlorophenyl)-1H-pyrrolo[2,3-b]pyridin-3-yl]carbonyl]-2,4-difluorophenyl]] | 27 | 21830955 | 40 | 17943024 | 62 | 11383792 | 2431268 | 4540797 | 5192876 | 2501364 | 1,890 nM | 76 | 9230994 | 92 | 3163194 | 94 | 2333062 | 413818 | 662217 | 876269 | fold induction at 0.1 µM [2, 7]: 1.14; Fold induction of PARP cleavage ([2]; single agent 1 000 nM): 2.13 fold; Fold induction of PARP cleavage ([2]; single agent 10 000 nM): 2.44 fold; Fold induction of PARP cleavage ([3]; human, 24 h, 10000 nM): 1.00 fold; Fold induction of PARP cleavage [3, 8]: 1.17 fold; IC50 ([4]; Homo sapiens, A2058, approximately, read-out: IC50 with A2058 unsensitive cancer cells): ~4.2 µM; IC40, antiproliferative effect, A2058 ([4]; single agent, approximately): ~1,200 nM; fold induction at 0.1 µM [6, 7]: 1.62; Fold induction of PARP cleavage ([6]; single agent 1 000 nM): 2.59 fold; Fold induction of PARP cleavage ([6]; single agent 10 000 nM): 3.42 fold |
| C[C@H]1Cc2ccccc2N1C(=O)Cc1nc(N2CCOCC2)cc(=O)[nH]1 [Compound (I), 2-{2-[(2S)-2-methyl-2,3-dihydro-1H-indol-1-yl]-2-oxoethyl}-6-(morpholin-4-yl)pyrimidin-4(3H)-one] | 8 | 27394341 | 42 | 17416427 | 73 | 8161752 | 2380877 | 2685395 | 5173100 | 2141626 | 11,500 nM | 69 | 12132104 | 90 | 3984365 | 94 | 2239754 | 241428 | 502317 | 1756263 |  |
